Species on record: Homo sapiens
Experiment: Inhibition of HA-tagged YAP/Gal4-tagged TEAD (unknown origin) interaction at 2.5 uM by Coimmunoprecipitation assay

VERTEPORFIN
inhibition: > 50%

From ChEMBL document CHEMBL3580621, “The Hippo Pathway and YAP/TAZ-TEAD Protein-Protein Interaction as Targets for Regenerative Medicine and Cancer Treatment” (J Med Chem, 2015)
